Literature values as cited in patent publication US9133185B2, “Heteroaryl derivatives” (CHIESI FARMACEUTICI S.P.A., priority 2013, dated 2015).

What was measured:
[1] = tested on: smoking model of COPD in mice
[2] = COPD patients, 500 mg once daily, given over 12 months
[3] = COPD patients, oral, given over 4 weeks
[4] = patients with severe disease who have frequent exacerbations and mucus hypersecretion

O=C(Nc1c(Cl)cncc1Cl)c1ccc(OC(F)F)c(OCC2CC2)c1 [Roflumilast, roflumilast]
lung inflammation and emphysema [1]: inhibits lung inflammation and emphysema | lung function (COPD patients; [2]): improved lung function in COPD patients to a small extent | reducing exacerbations or improving quality of life (COPD patients; [2]): little effect | CXCL8 concentrations in sputum (COPD patients; [3]): significantly reduces | reduction of the numbers of neutrophils in sputum (COPD patients; [3]): 36% | improvement of FEV 1 (COPD patients; [4]): approximately 50 mL | reduction of exacerbation (COPD patients; [4]): about 15%
